Test results from patent publication US10975077B2 (Novira Therapeutics, Inc., priority 2016, dated 2021).

Test system: HBV (encapsidated HBV DNA, HepG2.2.15 cells)
Test: HBV replication inhibition assay, BDNA assay in HepG2.2.15 cells
Type: cell-based
Details: Activity in BDNA-assay
Method in brief: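 Encapsidated HBV DNA in DNase-treated, proteinase K-lysed supernatant was measured by branched DNA after 6 days' compound exposure, refreshed on day 3, of HepG2.2.15 cells in 0.5% DMSO. Signals normalized to DMSO-treated wells; EC50 from nonlinear regression of inhibition against log concentration.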

Row | SMILES | EC50
1 | CCC(O)C1CN(C)C(=O)c2c3c(nn2C1)CC(C)N(C(=O)Nc1ccc(F)c(C(F)(F)F)c1)C3 [Compound 107_D2, (3R,8R*)—N-(4-fluoro-3-(trifluoromethyl)phenyl)-8-((R)-1-hydroxypropyl)-3,10-dimethyl-11-oxo-1,3,4,7,8,9,10,11-octahydro-2H-pyrido[4′,3′:3,4]pyrazolo[1,5-a][1,4] diazepine-2-carboxamide] | 0.001 to 0.1 µM

Same assay, conditions: Hepatitis B virus, HepG2.2.15, Activity in BDNA-assay

Row | SMILES | EC50
2 | CN(C)C(=O)C1CCn2nc3c(c2C(=O)N1C)CN(C(=O)Nc1ccc(F)c(Cl)c1)CC3 (stereo not drawn) [Compound 059, N2-(3-chloro-4-fluorophenyl)-N9,N9,10-trimethyl-11-oxo-1,3,4,7,8,9,10,11-octahydro-2H-pyrido[4′,3′:3,4]pyrazolo[1,5-a][1,4]diazepine-2,9-dicarboxamide] | 0.1 to 0.5 µM
3 | CN1C(=O)c2c3c(nn2CCC1(C)CO)CCN(C(=O)Nc1ccc(F)c(Cl)c1)C3 (stereo not drawn) [Compound 061, N-(3-chloro-4-fluorophenyl)-9-(hydroxymethyl)-9,10-dimethyl-11-oxo-1,3,4,7,8,9,10,11-octahydro-2H-pyrido[4′,3′:3,4]pyrazolo[1,5-a][1,4]diazepine-2-carboxamide] | 0.001 to 0.1 µM
4 | CN1C(=O)c2c3c(nn2CCC1(C)C(=O)O)CCN(C(=O)Nc1ccc(F)c(Cl)c1)C3 (stereo not drawn) [Compound 062, 2-((3-chloro-4-fluorophenyl)carbamoyl)-9,10-dimethyl-11-oxo-1,3,4,7,8,9,10,11-octahydro-2H-pyrido[4′,3′:3,4]pyrazolo[1,5-a][1,4]diazepine-9-carboxylic acid] | > 1 µM
5 | CN1CC(CN2CCOCC2)Cn2nc3c(c2C1=O)CN(C(=O)Nc1ccc(F)c(Cl)c1)CC3 (stereo not drawn) [Compound 063, N-(3-chloro-4-fluorophenyl)-10-methyl-8-(morpholinomethyl)-11-oxo-1,3,4,7,8,9,10,11-octahydro-2H-pyrido[4′,3′:3,4]pyrazolo[1,5-a][1,4]diazepine-2-carboxamide] | 0.001 to 0.1 µM
6 | CN1CC(CN2CCCCC2)Cn2nc3c(c2C1=O)CN(C(=O)Nc1ccc(F)c(Cl)c1)CC3 (stereo not drawn) [Compound 064, N-(3-chloro-4-fluorophenyl)-10-methyl-11-oxo-8-(piperidin-1-ylmethyl)-1,3,4,7,8,9,10,11-octahydro-2H-pyrido[4′,3′:3,4]pyrazolo[1,5-a][1,4]diazepine-2-carboxamide] | 0.1 to 0.5 µM
7 | CN(C)CC1CN(C)C(=O)c2c3c(nn2C1)CCN(C(=O)Nc1ccc(F)c(Cl)c1)C3 (stereo not drawn) [Compound 065] | 0.1 to 0.5 µM
8 | CN1CC(CN2CCC(F)(F)C2)Cn2nc3c(c2C1=O)CN(C(=O)Nc1ccc(F)c(Cl)c1)CC3 (stereo not drawn) [Compound 066, N-(3-chloro-4-fluorophenyl)-8-((3,3-difluoropyrrolidin-1-yl)methyl)-10-methyl-11-oxo-1,3,4,7,8,9,10,11-octahydro-2H-pyrido[4′,3′:3,4]pyrazolo[1,5-a][1,4]diazepine-2-carboxamide] | 0.001 to 0.1 µM
9 | CN1CC(CN2CCC(F)(F)C2)Cn2nc3c(c2C1=O)CN(C(=O)Nc1ccc(F)c(C#N)c1)CC3 (stereo not drawn) [Compound 067, N-(3-cyano-4-fluorophenyl)-8-((3,3-difluoropyrrolidin-1-yl)methyl)-10-methyl-11-oxo-1,3,4,7,8,9,10,11-octahydro-2H-pyrido[4′,3′:3,4]pyrazolo[1,5-a][1,4]diazepine-2-carboxamide] | 0.1 to 0.5 µM
10 | CN1CC(CN2CCC(F)(F)C2)Cn2nc3c(c2C1=O)CN(C(=O)Nc1ccc(F)c(C(F)(F)F)c1)CC3 (stereo not drawn) [Compound 068, 8-((3,3-difluoropyrrolidin-1-yl)methyl)-N-(4-fluoro-3-(trifluoromethyl)phenyl)-10-methyl-11-oxo-1,3,4,7,8,9,10,11-octahydro-2H-pyrido[4′,3′:3,4]pyrazolo[1,5-a][1,4] diazepine-2-carboxamide] | 0.1 to 0.5 µM
11 | CN1CC(CN2CCCC2)Cn2nc3c(c2C1=O)CN(C(=O)Nc1ccc(F)c(Cl)c1)CC3 (stereo not drawn) [Compound 069, N-(3-chloro-4-fluorophenyl)-10-methyl-11-oxo-8-(pyrrolidin-1-ylmethyl)-1,3,4,7,8,9,10,11-octahydro-2H-pyrido[4′,3′:3,4]pyrazolo[1,5-a][1,4]diazepine-2-carboxamide] | 0.001 to 0.1 µM
12 | CN1CC(CN)Cn2nc3c(c2C1=O)CN(C(=O)Nc1ccc(F)c(Cl)c1)CC3 (stereo not drawn) [Compound 070, 8-(aminomethyl)-N-(3-chloro-4-fluorophenyl)-10-methyl-11-oxo-1,3,4,7,8,9,10,11-octahydro-2H-pyrido[4′,3′:3,4]pyrazolo[1,5-a][1,4]diazepine-2-carboxamide] | 0.001 to 0.1 µM
13 | C[C@@H]1Cc2nn3c(c2CN1C(=O)Nc1cc(Cl)c(F)cc1Br)C(=O)N(CC(F)F)CCC3 [Compound 071, (R)—N-(2-bromo-5-chloro-4-fluorophenyl)-10-(2,2-difluoroethyl)-3-methyl-11-oxo-1,3,4,7,8,9,10,11-octahydro-2H-pyrido[4′,3′:3,4]pyrazolo[1,5-a][1,4]diazepine-2-carboxamide] | 0.001 to 0.1 µM
14 | C[C@@H]1Cc2nn3c(c2CN1C(=O)Nc1ccc(F)c(Cl)c1)C(=O)N(CC(F)F)CCC3 [Compound 072, (3R)—N-(3-chloro-4-fluorophenyl)-10-(2,2-difluoroethyl)-3-methyl-11-oxo-1,3,4,7,8,9,10,11-octahydro-2H-pyrido[4′,3′:3,4]pyrazolo[1,5-a][1,4]diazepine-2-carboxamide] | 0.001 to 0.1 µM
15 | C[C@@H]1Cc2nn3c(c2CN1C(=O)Nc1ccc(F)c(C(F)(F)F)c1)C(=O)N(CC(F)F)CCC3 [Compound 073, (R)-10-(2,2-difluoroethyl)-N-(4-fluoro-3-(trifluoromethyl)phenyl)-3-methyl-11-oxo-1,3,4,7,8,9,10,11-octahydro-2H-pyrido[4′,3′:3,4]pyrazolo[1,5-a][1,4]diazepine-2-carboxamide] | 0.001 to 0.1 µM
16 | C[C@@H]1Cc2nn3c(c2CN1C(=O)Nc1ccc(F)c(Br)c1)C(=O)N(CC(F)F)CCC3 [Compound 074, (R)—N-(3-bromo-4-fluorophenyl)-10-(2,2-difluoroethyl)-3-methyl-11-oxo-1,3,4,7,8,9,10,11-octahydro-2H-pyrido[4′,3′:3,4]pyrazolo[1,5-a][1,4]diazepine-2-carboxamide] | 0.001 to 0.1 µM
17 | C[C@@H]1Cc2nn3c(c2CN1C(=O)Nc1ccnc(Br)c1F)C(=O)N(CC(F)F)CCC3 [Compound 075] | 0.001 to 0.1 µM
18 | C[C@@H]1Cc2nn3c(c2CN1C(=O)Nc1ccc(F)c(C#N)c1)C(=O)N(CC(F)F)CCC3 [Compound 076, (R)—N-(3-cyano-4-fluorophenyl)-10-(2,2-difluoroethyl)-3-methyl-11-oxo-1,3,4,7,8,9,10,11-octahydro-2H-pyrido[4′,3′:3,4]pyrazolo[1,5-a][1,4]diazepine-2-carboxamide] | 0.001 to 0.1 µM
19 | Cc1cc(NC(=O)N2Cc3c(nn4c3C(=O)N(CC(F)F)CCC4)C[C@H]2C)ccc1F [Compound 077, (R)-10-(2,2-difluoroethyl)-N-(4-fluoro-3-methylphenyl)-3-methyl-11-oxo-1,3,4,7,8,9,10,11-octahydro-2H-pyrido[4′,3′:3,4]pyrazolo[1,5-a][1,4]diazepine-2-carboxamide] | 0.001 to 0.1 µM
20 | C[C@@H]1Cc2nn3c(c2CN1C(=O)Nc1cc(Cl)c(F)cc1F)C(=O)N(CC(F)F)CCC3 [Compound 078, (R)—N-(5-chloro-2,4-difluorophenyl)-10-(2,2-difluoroethyl)-3-methyl-11-oxo-1,3,4,7,8,9,10,11-octahydro-2H-pyrido[4′,3′:3,4]pyrazolo[1,5-a][1,4]diazepine-2-carboxamide] | 0.1 to 0.5 µM
21 | CN1CC(CO)(CC(F)F)Cn2nc3c(c2C1=O)CN(C(=O)Nc1ccc(F)c(Cl)c1)CC3 (stereo not drawn) [Compound 091, N-(3-chloro-4-fluorophenyl)-8-(2,2-difluoroethyl)-8-(hydroxmethyl)-10-methyl-11-oxo-1,3,4,7,8,9,10,11-octahydro-2H-pyrido[4′,3′:3,4]pyrazolo[1,5-a][1,4]diazepine-2-carboxamide] | 0.1 to 0.5 µM
22 | CN1CC(CN)Cn2nc3c(c2C1=O)CN(C(=O)Nc1ccc(F)c(C(F)(F)F)c1)CC3 (stereo not drawn) [Compound 093, 8-(aminomethyl)-N-[4-fluoro-3-(trifluoromethyl)phenyl]-10-methyl-11-oxo-1,3,4,7,8,9-hexahydropyrido[2,3]pyrazolo[2,4-b][1,4]diazepine-2-carboxamide] | 0.1 to 0.5 µM
23 | CNCC1CN(C)C(=O)c2c3c(nn2C1)CCN(C(=O)Nc1ccc(F)c(C(F)(F)F)c1)C3 (stereo not drawn) [Compound 094, N-[4-fluoro-3-(trifluoromethyl)phenyl]-10-methyl-8-(methylaminomethyl)-11-oxo-1,3,4,7,8,9-hexahydropyrido[2,3]pyrazolo[2,4-b][1,4]diazepine-2-carboxamide] | 0.1 to 0.5 µM
24 | CN1CC(CN)Cn2nc3c(c2C1=O)CN(C(=O)Nc1ccc(F)c(C#N)c1)CC3 (stereo not drawn) [Compound 095, 8-(aminomethyl)-N-(3-cyano-4-fluorophenyl)-10-methyl-11-oxo-1,3,4,7,8,9,10,11-octahydro-2H-pyrido[4′,3′:3,4]pyrazolo[1,5-a][1,4]diazepine-2-carboxamide] | 0.001 to 0.1 µM
25 | CCC(O)C1CN(C)C(=O)c2c3c(nn2C1)CCN(C(=O)Nc1ccc(F)c(Br)c1)C3 [Compound 102_E1, (R*)—N-(3-bromo-4-fluorophenyl)-8-((S)-1-hydroxypropyl)-10-methyl-11-oxo-1,3,4,7,8,9,10,11-octahydro-2H-pyrido[4′,3′:3,4]pyrazolo[1,5-a][1,4]diazepine-2-carboxamide] | 0.001 to 0.1 µM
26 | CCCC(O)C1CN(C)C(=O)c2c3c(nn2C1)CCN(C(=O)Nc1ccc(F)c(Cl)c1)C3 (stereo not drawn) [Compound 106, N-(3-chloro-4-fluoro-phenyl)-8-(1-hydroxybutyl)-10-methyl-1-oxo-1,3,4,7,8,9-hexahydropyrido[2,3]pyrazolo[2,4-b][1,4]diazepine-2-carboxamide] | 0.001 to 0.1 µM
27 | CCC(O)C1CN(C)C(=O)c2c3c(nn2C1)CC(C)N(C(=O)Nc1ccc(F)c(C(F)(F)F)c1)C3 [Compound 107_D1, (3R,8S*)—N-(4-fluoro-3-(trifluoromethyl)phenyl)-8-((R)-1-hydroxypropyl)-3,10-dimethyl-11-oxo-1,3,4,7,8,9,10,11-octahydro-2H-pyrido[4′,3′:3,4]pyrazolo[1,5-a][1,4] diazepine-2-carboxamide] | 0.001 to 0.1 µM
